Where a name gives a salt, the structure may show the parent alone.
Legend:
[1] = Solubility measurement in preparation solution (water solubility); format: physicochemical; conditions: hydrochloride; for dissolution amount: preparation solution (D-sorbitol, lactic acid, pH about 3.5), shaken at 22° C. for 30 minutes; for water solubility: pH3.5
Procedure: About 0.5 g of b- or c-type crystals were weighed out, suspended in a preparation solution, and shaken at 22° C. for 30 minutes (130 r/min). The mixture was filtered by a membrane filter (0.45 μm). To 1 ml of the filtrate, the preparation solution was added up to 200 mL. 10 μl was aliquoted and analyzed by liquid chromatography. The dissolution amount was obtained on the basis of a calibration curve previously prepared.
Note that the preparation solution used herein was prepared by dissolving 45 g of D-sorbitol in an appropriate amount of distilled water for injection, adding 900 mg of lactic acid, adjusting pH of the solution at about 3.5, and adding distilled water for injection up to 1000 mL.

[2] = Change of dissolution state over time (30 mg/mL in preparation solution); format: physicochemical; conditions: shaken for several minutes

dissolution amount [1] [mg/mL]	water solubility [1] [mg/mL]	temperature needed to dissolve [2]	Structure (SMILES)
≥ 100			CCc1c2c(nc3ccc(OC(=O)N4CCC(N5CCCCC5)CC4)cc13)-c1cc3c(c(=O)n1C2)COC(=O)[C@]3(O)CC [No. 3, irinotecan hydrochloride]
11.4	11.4	about 70 °C	CCc1c2c(nc3ccc(OC(=O)N4CCC(N5CCCCC5)CC4)cc13)-c1cc3c(c(=O)n1C2)COC(=O)[C@]3(O)CC [b-type crystals, irinotecan hydrochloride]
	≥ 100		CCc1c2c(nc3ccc(OC(=O)N4CCC(N5CCCCC5)CC4)cc13)-c1cc3c(c(=O)n1C2)COC(=O)[C@]3(O)CC [c-type crystals, irinotecan hydrochloride]
